“Also recorded” adds a separate entry of the source. Read-outs that look alike come from different tables or passages of the source.
How the values were obtained:
[1] = Concentration of Compound 3 in rat tissue 24 hours after i.v. liposome (LC/MS/MS); assay type: in vivo; settings: for concentration at 24 h: male, SD, rat, iv, 24 hours after i.v. liposome
Method: (§1) A pH-responsive liposome was prepared from mixed lipid (Compound (3)/cholesterol/PEG-Glu2C18=5/5/0.03 (mol)) using the high-pressure extrusion method. In the preparation, the particle size of the liposome was adjusted to 200 to 250 nm. Further, BSA was encapsulated in the internal aqueous phase. The prepared pH-responsive liposome ([Lipid]=20 mg/mL) was intravenously administered to a SD rat (male, body weight of 300 g or less) via the tail vein in an amount of 2 ml/kg under ether anesthesia. The number of rats used was N=3. Prior to the administration and 5 minutes, 1, 2, 6 and 24 hours after the administration, blood was collected (about 500 μL). The obtained blood was subjected to centrifugation (2,000×g, 20 minutes) to obtain plasma (liposome-suspended plasma), and this was preserved at −80° C. Further, after blood was collected 24 hours after the administration, the liver, spleen, lung and kidney were isolated, the wet weight thereof was measured, and these materials were preserved at −80° C. After that, homogenization was carried out using a saline in an amount 4 times greater than the wet weight of the organs.
(§2) A material in which the procedure is carried out until 100 μL of methanol is added to 10 μL of homogenate solution of plasma and the organs was used as a sample for measurement of specimen.
(§3) To the above-described sample for measurement, a solution to which an internal standard material (1,5-dihexadecyl N-glutamyl-L-glutamate (αGlu-Glu2C16)) was added (900 μL) was added, and the mixture was subjected to vortex stirring. After that, the mixture was allowed to stand at room temperature for at least 10 minutes. After that, the mixture was subjected to vortex stirring again and centrifuged at 4° C. at 10,000×g for 15 minutes. The obtained supernatant was transferred to an LC vial.
An analyte for producing a calibration curve for measurement of tissue was measured, and a calibration curve of 1-100 μg/ml was prepared with weighting of 1/x^2 and Quadratic. The peak area of the analyte for measurement of tissue/IS peak area was substituted into the obtained formula of the calibration curve to calculate the concentration of Compound 3 in tissue (in the calculation, the specific gravity of the tissue homogenate was regarded as 1 g/mL). FIG. 9 is a graph showing the results.

[2] = Concentration of Compound 3 in rat plasma after i.v. liposome (LC/MS/MS); assay type: in vivo, SD rat; settings: male, Sprague-Dawley, iv, 40 mg/kg; for AUC / Cmax / half-life / concentration at 5 min / concentration at 1 h / concentration at 2 h / concentration at 6 h / concentration at 24 h: rat, plasma; for concentration at 5 min / concentration at 1 h / concentration at 2 h / concentration at 6 h / concentration at 24 h: SD rat, i.v. BSA-encapsulated pH-responsive liposome ([Lipid]=20 mg/mL, 2 ml/kg), read-out: GGLG concentration in plasma
Method: as §1, §2, §3
As a column, CAPLCELLPAK C18 MG (Shiseido Co., Ltd.) (3 μm, 2.0×50 mm) was used, and the column temperature was set at 40° C. Gradient elution was carried out using 0.1% acetic acid aqueous solution (A)-0.1% methanol acetate (B). The flow rate was 0.25 mL/min. The temperature of the autoinjector was set at 15° C. Regarding a needle washing solution, chloroform/methanol (1:1) was used for a washing pump, and methanol was used for a washing port.
The eluent that was separated by HPLC was subjected to positive ESI ionization and measured in the MRM mode.
An analyte for producing a calibration curve for measurement of plasma was measured, and a calibration curve of 1-300 μg/mL of plasma was prepared with weighting of 1/x^2 and Quadratic. The peak area of the analyte for measurement of plasma/IS peak area was substituted into the obtained formula of the calibration curve to calculate the concentration of Compound 3 in plasma. FIG. 8 is a graph showing the results. In FIG. 8, (-⋄-), (--[…]--) and (--Δ--) show the results of animal 1, animal 2 and animal 3, respectively.

[3] = Measurement of zeta potential of liposomes; assay type: physicochemical; settings: 37°C
Method: Portions of the prepared liposome ([lipid]=10 mg/ml) were respectively added to acetate buffers with different pHs (7.4, 7, 6, 5, 4) (30 mM) to the final concentration of [lipid]=1 mg/mL, and then the zeta potential at 37° C. was measured. Zetasizer 4 manufactured by Malvern was used. A capillary cell was filled with a liposome-dispersed liquid obtained by dilution to the measurement concentration, and the measurement was performed at 37° C. 3 times.
Portions of the prepared liposome ([lipid]=10 mg/ml) were respectively added to acetate buffers with different pHs (7.4, 7, 6, 5, 4) (20 mM) to the final concentration of [lipid]=1 mg/mL, and then the zeta potential at 37° C. was measured.
Portions of each of the prepared liposomes ([lipid]=10 mg/ml) were respectively added to acetate buffers with different pHs (7.4, 7, 6, 5, 4) (20 mM) to the final concentration of [lipid]=1 mg/mL, and then the zeta potential at 37° C. was measured.

[4] = SD rat plasma, i.v. liposome ([Lipid]=20 mg/mL, 2 ml/kg), animal 1
[5] = SD rat plasma, i.v. liposome ([Lipid]=20 mg/mL, 2 ml/kg), Average
[6] = SD rat plasma, i.v. liposome ([Lipid]=20 mg/mL, 2 ml/kg), animal 2
[7] = SD rat plasma, i.v. liposome ([Lipid]=20 mg/mL, 2 ml/kg), animal 3

For `CCCCCCCCCCCCCCCCOC(=O)CCC(NC(=O)C(CCCCNC(=O)C(N)CCC(=O)O)NC(=O)C(N)CCC(=O)O)C(=O)OCCCCCCCCCCCCCCCC` (centres unmarked) [Compound 3], the “distribution of Compound 3 in the organs” value ([1]; SD rat, 24 hours after the administration of pH-responsive liposome) was “mainly localized in the liver and spleen; also recorded: Almost no Compound 3 was localized in the kidney and lung”, the concentration at 24 h ([1]; liver, Liver, Average value) was 76800 ng/g and the concentration at 24 h ([1]; liver, Liver, animal 1) was 110000 ng/g. The concentration at 24 h ([1]; liver, Liver, animal 2) was 64400 ng/g, the concentration at 24 h ([1]; liver, Liver, animal 3) was 55600 ng/g and the concentration at 24 h ([1]; lung, Lung, Average value) was 5600 ng/g. The concentration at 24 h ([1]; lung, Lung, animal 1) was 5600 ng/g, the concentration at 24 h ([1]; lung, Lung, animal 2) was 5020 ng/g and the concentration at 24 h ([1]; lung, Lung, animal 3) was 6170 ng/g. It also gave a concentration at 24 h ([1]; spleen, Spleen, Average value) of 33500 ng/g, a concentration at 24 h ([1]; spleen, Spleen, animal 1) of 30400 ng/g and a concentration at 24 h ([1]; spleen, Spleen, animal 2) of 33400 ng/g. For the same compound, the concentration at 24 h ([1]; spleen, Spleen, animal 3) was 36700 ng/g, the Tmax [2, 4] was 4.98 min and the AUC [2, 5] was 309 µg·h/mL. For the same compound, the Cmax [2, 5] was 132000 ng/mL, the half-life ([2]; SD rat plasma, i.v. liposome ([Lipid]=20 mg/mL, 2 ml/kg), Average, read-out: t½ (converted)) was 4.84 h and the AUC [2, 4] was 266 µg·h/mL. The Cmax [2, 4] was 105000 ng/mL, the half-life ([2]; SD rat plasma, i.v. liposome ([Lipid]=20 mg/mL, 2 ml/kg), animal 1, read-out: t½ (converted)) was 5.03 h and the AUC [2, 6] was 364 µg·h/mL. The Cmax [2, 6] was 153000 ng/mL, the half-life ([2]; SD rat plasma, i.v. liposome ([Lipid]=20 mg/mL, 2 ml/kg), animal 2, read-out: t½ (converted)) was 4.31 h and the AUC [2, 7] was 297 µg·h/mL. The Cmax [2, 7] was 136000 ng/mL, the half-life ([2]; SD rat plasma, i.v. liposome ([Lipid]=20 mg/mL, 2 ml/kg), animal 3, read-out: t½ (converted)) was 5.18 h and the concentration at 5 min ([2]; Average value (N=3)) was 132000 ng/mL. For the same compound, the concentration at 5 min ([2]; animal 1) was 105000 ng/mL, the concentration at 5 min ([2]; animal 2) was 153000 ng/mL and the concentration at 5 min ([2]; animal 3) was 136000 ng/mL. It also gave a concentration at 1 h ([2]; Average value (N=3)) of 53600 ng/mL, a concentration at 1 h ([2]; animal 1) of 44700 ng/mL and a concentration at 1 h ([2]; animal 2) of 62400 ng/mL. The concentration at 1 h ([2]; animal 3) was 53500 ng/mL, the concentration at 2 h ([2]; Average value (N=3)) was 31200 ng/mL and the concentration at 2 h ([2]; animal 1) was 25800 ng/mL. The concentration at 2 h ([2]; animal 2) was 39300 ng/mL, the concentration at 2 h ([2]; animal 3) was 28500 ng/mL and the concentration at 6 h ([2]; Average value (N=3)) was 8900 ng/mL. It also gave a concentration at 6 h ([2]; animal 1) of 8390 ng/mL, a concentration at 6 h ([2]; animal 2) of 10200 ng/mL and a concentration at 6 h ([2]; animal 3) of 8120 ng/mL. The concentration at 24 h ([2]; Average value (N=3)) was 1130 ng/mL, the concentration at 24 h ([2]; animal 1) was 1020 ng/mL and the concentration at 24 h ([2]; animal 2) was 1200 ng/mL. For the same compound, the concentration at 24 h ([2]; animal 3) was 1170 ng/mL, the half-life ([2]; from concentration in rat plasma, i.v. pH-responsive liposome, read-out: half-life of Compound 3 (converted)) was 4.8 h and the “zeta potential of the liposome” value ([3]; liposome Compound 3/cholesterol/PEG-Glu2C18 (5/5/0.03), pH 7.4) was “negative”. The “zeta potential as pH was decreased” value ([3]; liposome Compound 3/cholesterol/PEG-Glu2C18 (5/5/0.03 molar ratio), acetate buffers pH 7.4-4 (30 mM)) was “changed from negative to positive” and the “pH at which the zeta potential changed from negative to positive” value ([3]; liposome compound/cholesterol/PEG-Glu2C18 (5/5/0.03 molar ratio), acetate buffers 20 mM) was “about 5.7”.
